Results published in patent US12612358B2, “Resorcinol-based compounds and uses thereof” (priority 2020, dated 2026).

Each molecule was assayed on SKOv3 (ovarian) (assay: Cell proliferation, SKOv3 ovarian cancer cells). Details: Homo sapiens, SK-OV-3, read-out: IC50 category.
Format: cell-based
Text: Effects of Compound-5B on cell proliferation in additional cancer cells: To determine whether Compound-5B would have broad based anticancer activity, we study whether Compound-5B would be effective at inhibiting cell proliferation in a variety of cancers overexpressing Id-1. The assay conditions used were identical to those presented for breast and pancreatic cancers. Indeed, Compound-5B was potent at inhibiting cell proliferation in blood cancer (leukemia), glioblastoma, prostate, and ovarian cancer.

Work on `CCCCCCC(C)(C)c1cc(O)c(C(=O)N(C)c2ccccc2)c(O)c1` [Compound 5E, 2,6-dihydroxy-N-methyl-4-(2-methyloctan-2-yl)-N-phenylbenzamide] yielded an IC50 of 0.5 to 1 µM.

Each molecule was assayed on PANC-1 tumors (assay: PANC-1 subcutaneous xenograft in athymic nu/nu mice). Details: PANC-1 tumor mice; Compound-5B 10 mg/kg i.p. daily, gemcitabine 50 mg/kg i.p. three times a week.
Format: in vivo

`Nc1ccn([C@@H]2O[C@H](CO)[C@@H](O)C2(F)F)c(=O)n1` [gemcitabine, reference compound] was tested, and the “weight loss (metric of drug toxicity)” value was “significant weight loss”.

These molecules were tested on MDA-MB231 D3H (assay: CellTiter-Glo viability/proliferation assay, MDA-MB231 breast cancer cells). Details: Homo sapiens, MDA-MB-231, 48 h, read-out: Inhibition of MDA-MB231 D3H.
Format: cell-based

First: CC(C)(c1ccccc1)c1cc(O)c(C(=O)NC2CCCCC2)c(O)c1 [Compound 17A, N-cyclohexyl-2,6-dihydroxy-4-(2-phenylpropan-2-yl)benzamide]
Second: CC(C)(c1cc(O)c(C(=O)Nc2ccccc2)c(O)c1)C1CCCCC1 [Compound 17C, 4-(2-cyclohexylpropan-2-yl)-2,6-dihydroxy-N-phenylbenzamide]
The IC50 of the first is higher: 0.5 to 1 µM for the first, under 0.5 µM for the second. The second is the more potent here.

First: CCCCCCC(C)(C)c1cc(O)c(C(=O)NC2CCCCC2)c(O)c1 [Compound 5A, N-cyclohexyl-2,6-dihydroxy-4-(2-methyloctan-2-yl)benzamide]
Second: CCCCCCC(C)(C)c1cc(O)c(C(=O)N(C)c2ccccc2)c(O)c1 [Compound 5E, 2,6-dihydroxy-N-methyl-4-(2-methyloctan-2-yl)-N-phenylbenzamide]
The IC50 of the first is lower: under 0.5 µM for the first, 1 to 5 µM for the second.

Molecule `CC(C)(c1cc(O)c(C(=O)Nc2ccccn2)c(O)c1)C1CCCCC1` [Compound 17D, 4-(2-cyclohexylpropan-2-yl)-2,6-dihydroxy-N-(pyridin-2-yl)benzamide] has an IC50 of under 0.5 µM.

Same assay, conditions: Homo sapiens, MDA-MB-231, 48 h; CellTiter-Glo, two-day treatment; read-out: Inhibition of MDA-MB231 D3H

First: CCCCCCC(C)(C)c1cc(O)c(C(=O)Nc2ccc(N3CCN(C)CC3)cc2)c(O)c1 [Compound 5F, 2,6-dihydroxy-4-(2-methyloctan-2-yl)-N-(4-(4-methylpiperazin-1-yl)phenyl)benzamide]
Second: CCCCCCC(C)(C)c1cc(O)c(C(=O)Nc2cccc(N3CCN(C)CC3)c2)c(O)c1 [Compound 5G, 2,6-dihydroxy-4-(2-methyloctan-2-yl)-N-(3-(4-methylpiperazin-1-yl)phenyl)benzamide]
The IC50 of the first is higher: over 15 µM for the first, 1 to 5 µM for the second. The second is the more potent here.

`CCCCCCC(C)(C)c1cc(O)c(C(=O)Nc2cccc(N3CCOCC3)c2)c(O)c1` [Compound 5J, 2,6-dihydroxy-4-(2-methyloctan-2-yl)-N-(3-morpholinophenyl)benzamide] and `CCCCCCC(C)(C)c1cc(O)c(C(=O)Nc2ccc(N3CCOCC3)cc2)c(O)c1` [Compound 5I, 2,6-dihydroxy-4-(2-methyloctan-2-yl)-N-(4-morpholinophenyl)benzamide] cannot be ordered by IC50: under 0.5 µM for the first, under 0.5 µM for the second.

First: CCCCCCC(C)(C)c1cc(O)c(C(=O)Nc2ccccc2N2CCN(C)CC2)c(O)c1 [Compound 5H, 2,6-dihydroxy-4-(2-methyloctan-2-yl)-N-(2-(4-methylpiperazin-1-yl)phenyl)benzamide]
Second: CCCCCCC(C)(C)c1cc(O)c(C(=O)Nc2ccccc2N2CCOCC2)c(O)c1 [Compound 5K, 2,6-dihydroxy-4-(2-methyloctan-2-yl)-N-(2-morpholinophenyl)benzamide]
The IC50 of the first is higher: 0.5 to 1 µM for the first, under 0.5 µM for the second.

`CC(C)(c1ccccc1)c1cc(O)c(C(=O)Nc2ccccc2)c(O)c1` [Compound 17B, 2,6-dihydroxy-N-phenyl-4-(2-phenylpropan-2-yl)benzamide] and `CCCCCc1cc(O)c(C(=O)Nc2ccccc2)c(O)c1` [Compound 11, 2,6-dihydroxy-4-pentyl-N-phenylbenzamide] cannot be ordered by IC50: under 0.5 µM for the first, under 0.5 µM for the second.

`CCCCCCC(C)(C)c1cc(O)c(C(=O)Nc2ccncn2)c(O)c1` [Compound 5D, 2,6-dihydroxy-4-(2-methyloctan-2-yl)-N-(pyrimidin-4-yl)benzamide] and `CCCCCCC(C)(C)c1cc(O)c(C(=O)Nc2ccccn2)c(O)c1` [Compound 5C, 2,6-dihydroxy-4-(2-methyloctan-2-yl)-N-(cyridin-2-yl) benzamide] cannot be ordered by IC50: under 0.5 µM for the first, under 0.5 µM for the second.

Molecule `CC(C)(CCCCN1CCOCC1)c1cc(O)c(C(=O)Nc2ccccc2)c(O)c1` [Compound 26A, 2,6-dihydroxy-4-(2-methyl-6-morpholinohexan-2-yl)-N-phenylbenzamide] has an IC50 of 1 to 5 µM.

These molecules were tested on PANC-1 (assay: CellTiter-Glo cell proliferation, PANC-1 pancreatic cancer cells). Details: Homo sapiens; PANC-1 (by context); read-out: IC50, inhibition of cell viability/proliferation.
Format: cell-based, human
Text: Cell culture and treatment of pancreatic cancer cell lines: Pancreatic cancer cells lines BxPC-3, SW1990, and PANC-1 used in the experiments presented herein can be obtained from ATCC. The cells can be cultured and passaged in complete growth medium (RPMI-1640, Dulbecco's Modified Eagle Medium, or Leibovitz's L-15 medium) that has been supplemented with fetal bovine serum to a final concentration of 10%.
Effects of Compound-5B on proliferation and Id-1 expression in pancreatic cell lines. Compound-5B was next tested for inhibition of cell viability/proliferation in the three pancreatic cancer cell lines and two primary patient-derived cancer cell lines. Compound-5B inhibited cell viability/proliferation of all the cancer cell lines (Table 2). The culturing condition for the pancreatic cell lines was similar to those used in the breast cancer lines, with the exception of the primary patient-derived pancreatic cancer cell lines (PANC9 and PANC13). For determining inhibition of cell proliferation in patient-derived pancreatic cancer cells were cultured in a T75 ultra low attachment flasks with DMEM/F12 media supplemented with B27, penicillin/streptomycin (10,000 u/mL), 50 µg/mL human epidermal growth factor (hEGF), 50 μg/mL human fibroblast growth factor, and 5 μg/mL heparin. Cells were plated in a 384-well plate and incubated for three days to promote the formation of tumorspheres. Cells were then treated with Compound-5B for three days. Cell proliferation of pancreatic cells in the presence of drug was measured using the CellTiter-Glo luminescent Assay and IC50 values were calculated (Table 2). The IC50 and corresponding 95% confidence limits (CL) were calculated using non-linear regression analysis.

`C=C(C)[C@@H]1CCC(C)=C[C@H]1c1c(O)cc(CCCCC)cc1O` [CBD, cannabidiol, reference compound] showed an IC50 of 1.9 µM.
